Data from US20110118269A1, “FUSED PYRAZINE COMPOUNDS AS THEIR SALTS, USEFUL FOR THE TREATMENT OF DEGENERATIVE AND INFLAMMATORY DISEASES” (priority 2009, published 2011).

Assays:
MMP1 expression by SFs = experiment: MMP assay proof of principle: MMP1 produced by complex trigger activated SFs; format: cell-based; conditions: 48 hrs, read-out: IC50, reduction of MMP1 expression by SFs
Protocol: A 384-well format ELISA for measurement of MMP1 is developed. Various primary antibodies are tested, as well as various ELISA protocols. The following protocol is developed and validated to measure MMP1 levels in SF supernatant in 384 well plates: white Lumitrac 600 384 well plates (Greiner) are coated with 2 μg/mL anti-MMP1 antibody MAB1346 (Chemicon). The antibody is diluted in buffer 40 (1.21 g Tris base (Sigma), 0.58 g NaCl (Calbiochem) and 5 mL 10% NaN3 (Sigma) in 1 L milliQ water and adjusted to pH 8.5). After overnight incubation at 4° C., plates are washed with PBS (80 g NaCl, 2g KCl (Sigma), 11.5 g Na2HPO4.7H2O and 2 g KH2PO4 in 10 L milliQ; pH 7.4) and blocked with 100 μL/well Casein buffer (2% Casein (VWR International) in PBS). Next day, casein buffer is removed from ELISA plates and replaced by 50 μL/well EC buffer (4 g casein, 2.13 g Na2HPO4 (Sigma), 2 g bovine albumin (Sigma), 0.69 g NaH2PO4.H2O (Sigma), 0.5 g CHAPS (Roche), 23.3 g NaCl, 4 mL 0.5 M EDTA pH 8 (Invitrogen), 5 mL 10% NaN3 in 1 L milliQ and adjusted to pH 7.0). 0.25 mM DTT (Sigma) is added to the thawed samples plates. After removal of the EC buffer, 20 μL of sample is transferred to the ELISA plates. […] Readout is performed on the Luminoscan Ascent Luminometer (Labsystems) with an integration time of 200 msec or with an Envision reader (Perkin Elmer). […]

[1] = after 24 months treatment; cited from earlier work

Row | IC50 (MMP1 expression by SFs) | SMILES | patients achieving an ACR50 score [1]
1 | ~1 nM | C[C@@H]1C[C@H]2[C@@H]3CCC4=CC(=O)C=C[C@]4(C)[C@@]3(F)[C@@H](O)C[C@]2(C)[C@@]1(O)C(=O)CO [dexamethasone] | –
2 | – | CN(Cc1cnc2nc(N)nc(N)c2n1)c1ccc(C(=O)N[C@@H](CCC(=O)O)C(=O)O)cc1 [methotrexate] | 30%
